Earlier results, collected in US20240424000A1, “LONG-ACTING INTRA-ARTICULAR DOSAGE FORMS CONTAINING FLUTICASONE PROPIONATE AND USE THEREOF” (Eupraxia Pharmaceuticals Inc., priority 2023, published 2024).

System: cartilage
Settings: IA every 12 weeks for 2 years; McAlindon et al. 2017

## CC1(C)O[C@@H]2C[C@H]3[C@@H]4CCC5=CC(=O)C=C[C@]5(C)[C@@]4(F)[C@@H](O)C[C@]3(C)[C@]2(C(=O)CO)O1 [TCA, triamcinolone acetonide]
  effect of chronic exposure on cartilage: led to increased cartilage loss
